# According to patent publication US7087623B2, “Thiazole and other heterocyclic ligands for mammalian dopamine, muscarinic and serotonin receptors and transporters, and methods of use thereof” (Sepracor Inc., priority 2001, dated 2006):
# Where two headings read alike, the source gives them in different places.
# Tests used:
# [1] = target: T1, human serotonin 5-HT2B receptor (Homo sapiens, UniProt P41595); test: Radioligand binding assay, human 5-HT2B receptors ([3H]LSD)
# T1 construct: expressed in transfected cells; host or cells: CHO-K1
# Summary of the method: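 Membranes from CHO-K1 cells stably expressing human 5-HT2B, in modified Tris-HCl pH 7.4, bound with [3H]LSD. Non-specific binding defined with 10 μM serotonin; specific binding counted after filtration and three washes.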
# [2] = target: T2, human muscarinic M1 receptor (Homo sapiens, UniProt P11229); test: Binding to human muscarinic M1 receptors ([3H]N-methylscopolamine)
# T2 construct: expressed in transfected cells; host or cells: BSR-M1H
# T2 sequence (P11229 1-460): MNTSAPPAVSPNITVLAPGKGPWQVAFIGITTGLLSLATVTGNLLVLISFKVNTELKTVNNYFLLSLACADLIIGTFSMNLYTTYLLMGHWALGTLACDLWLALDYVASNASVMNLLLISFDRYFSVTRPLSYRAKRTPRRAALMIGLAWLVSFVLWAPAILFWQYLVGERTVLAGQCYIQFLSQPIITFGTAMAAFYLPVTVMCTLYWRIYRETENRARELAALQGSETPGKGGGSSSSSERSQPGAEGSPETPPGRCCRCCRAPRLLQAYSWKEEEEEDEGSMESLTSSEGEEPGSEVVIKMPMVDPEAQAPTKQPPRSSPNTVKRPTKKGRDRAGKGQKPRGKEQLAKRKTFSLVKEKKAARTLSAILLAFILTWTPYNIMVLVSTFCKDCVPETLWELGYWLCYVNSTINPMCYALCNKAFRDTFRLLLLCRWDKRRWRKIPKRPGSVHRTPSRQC
# Experimental: This assay measures binding of [^3H]N-methylscopolamine to human muscarinic M1 receptors. BSR-M1H cells transfected with a plasmid encoding the human muscarinic M1 receptor were used to prepare membranes in modified Tris-HCl pH 7.4 buffer using standard techniques. A 25 μg aliquot of membrane was incubated with 0.29 nM [^3H]N-methylscopolamine for 60 minutes at 25° C. Non-specific binding was estimated in the presence of 1 μM atropine. Membranes were filtered and washed 3 times and the filters were counted to determine [^3H]N-methylscopolamine specifically bound. See Buckley, N. J., Bonner, T. I., Buckley, C. M. and Brann, M. R. Antagonist binding properties of five cloned muscarinic receptors expressed in CHO-K1 cells. Mol. Pharmacol. 35: 469–476, 1989; Luthin, G. R. and Wolfe, B. B. Comparison of [^3H]pirenzepine and [^3H]quinuclidinylbenzilate binding to muscarine cholinergic receptors in rat brain. J. Pharmacol. Exp. Ther. 228: 648–665, 1984; and Watson, M., Yamamura, H. I. and Roeske, W. R. A unique regulatory profile and regional distribution of [^3H]pirenzepine binding in the rat provide evidence for distinct M1 and M2 muscarinic receptor subtypes. Life. Sci. 32: 3001–3011, 1983.
# (§1) The human 5-HT2a and 5-HT2b screens were conducted according to Bonhaus, D. W. et al. Br. J. Pharmacol. 1995, 115, 622. The human […], W. A. et al. J. Neurochem. 1997, 69, 1449. The human 5-HT6 screen was conducted according to Monsama, F. J. et al. Mol. Pharmacol. 1993, 43, 320. The assay to human D3 receptors was conducted according to Sokoloff, P. et al. Nature 1990, 347;146. The human dopamine transporter assay was conducted according to Gu, H. et. al. J. Biol. Chem. 1994, 269 (10);7124; and Giros, B. et al. Trends. Pharmacol. Sci. 1993, 14: 43. The human muscarinic M1–M4 screens were conducted according to Buckley N. J. et al. Mol. Pharmacol. 1989, 35:469.
# (§2) The human dopamine transporter assay was conducted according to Gu, H. et. al. J. Biol. Chem. 1994, 269 (10);7124 and Giros, B. et al. Trends. Pharmacol. Sci. 1993, 14: 43. The human muscarinic M1–M4 screens were conducted according to Buckley N. J. et al. Mol. Pharmacol. 199, 35:469
# [3] = target: T3, human muscarinic M2 receptor (Homo sapiens, UniProt P08172); test: Binding to human muscarinic M2 receptors ([3H]N-methylscopolamine)
# T3 construct: expressed in transfected cells; host or cells: BSR-M2H
# T3 sequence (P08172 1-466): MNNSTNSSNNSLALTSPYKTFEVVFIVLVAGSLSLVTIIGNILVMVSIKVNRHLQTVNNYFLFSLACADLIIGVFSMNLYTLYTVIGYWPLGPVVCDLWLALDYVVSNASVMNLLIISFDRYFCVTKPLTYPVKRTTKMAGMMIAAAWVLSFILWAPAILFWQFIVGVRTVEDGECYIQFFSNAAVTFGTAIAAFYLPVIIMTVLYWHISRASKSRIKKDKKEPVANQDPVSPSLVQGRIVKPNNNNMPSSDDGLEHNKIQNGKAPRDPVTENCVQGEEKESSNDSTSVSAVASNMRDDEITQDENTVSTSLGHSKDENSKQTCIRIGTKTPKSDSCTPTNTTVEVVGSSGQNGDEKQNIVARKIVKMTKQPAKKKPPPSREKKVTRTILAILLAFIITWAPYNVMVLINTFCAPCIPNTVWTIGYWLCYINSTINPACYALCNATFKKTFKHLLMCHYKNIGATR
# Experimental: This assay measures binding of [^3H]N-methylscopolamine to human muscarinic M2 receptors. BSR-M2H cells transfected with a plasmid encoding the human muscarinic M2 receptor were used to prepare membranes in modified Tris-HCl pH 7.4 buffer using standard techniques. A 5 μg aliquot of membrane was incubated with 0.29 nM [^3H]N-methylscopolamine for 60 minutes at 25° C. Non-specific binding was estimated in the presence of 1 μM atropine. Membranes were filtered and washed 3 times and the filters were counted to determine [^3H]N-methylscopolamine specifically bound. See Buckley, N. J., Bonner, T. I., Buckley, C. M. and Brann, M. R. Antagonist binding properties of five cloned muscarinic receptors expressed in CHO-K1 cells. Mol. Pharmacol. 35: 469–476, 1989; and Delmendo, R. E., Michel, A. D. and Whiting, R. L. Affinity of muscarinic receptor antagonists for the three putative muscarinic binding sites. Br. J. Pharmacol. 96: 457–464, 1989.
# as §1, §2
# [4] = human, Example 100 table, read-out: IC50 (nM) 5-HT2B
# [5] = human, Example 100 table, read-out: IC50 (nM) M1
# [6] = human, Example 100 table, read-out: IC50 (nM) M2
# [7] = human 5-HT2b, Example 16 table, read-out: IC50 (nM) 5-HT2b
# [8] = human, Example 101 table, read-out: IC50 (nM) M1
# [9] = human, Example 101 table, read-out: IC50 (nM) M2
# T1 sequence (P41595 whole entry): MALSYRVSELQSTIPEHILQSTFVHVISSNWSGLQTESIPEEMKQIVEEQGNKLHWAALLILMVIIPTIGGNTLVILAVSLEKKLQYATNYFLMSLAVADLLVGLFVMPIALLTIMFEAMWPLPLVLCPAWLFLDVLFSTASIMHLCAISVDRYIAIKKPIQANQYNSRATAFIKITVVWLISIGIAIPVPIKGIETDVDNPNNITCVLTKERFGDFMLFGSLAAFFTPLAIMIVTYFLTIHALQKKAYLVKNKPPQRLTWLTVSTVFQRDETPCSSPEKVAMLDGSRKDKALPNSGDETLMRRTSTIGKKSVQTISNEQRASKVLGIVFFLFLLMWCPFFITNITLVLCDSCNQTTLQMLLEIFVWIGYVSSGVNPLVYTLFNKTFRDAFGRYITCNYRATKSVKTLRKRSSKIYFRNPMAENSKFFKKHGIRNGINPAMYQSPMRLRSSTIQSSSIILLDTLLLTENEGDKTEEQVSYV
Structure (SMILES),"IC50 [2, 5] [nM]","IC50 [3, 6] [nM]","IC50 [1, 7] [nM]","IC50 [2, 8] [nM]","IC50 [3, 9] [nM]",further results
"CN1CCCC1CCNc1nc(C2(c3ccccc3F)CCCCC2)cs1 (racemic) [Compound 128, {4-[1-(2-fluorophenyl)-cyclohexyl]-thiazol-2-yl}-[2-(1-methyl-pyrrolidin-2-yl)-ethyl]-amine]",< 1000,> 1000,–,–,–,"IC50 [1, 4]: < 1000 nM"
"CN1CCCC1CCNc1nc(C2(c3ccccc3F)CCCCC2)cs1 (single isomer, unassigned) [Compound 130, {4-[1-(2-fluorophenyl)-cyclohexyl]-thiazol-2-yl}-[2-(1-methyl-pyrrolidin-2-yl)-ethyl]-amine]",> 1000,> 1000,–,–,–,"IC50 [1, 4]: < 100 nM"
CN1CCN(c2nc(C3(c4csc5ccc(Cl)cc45)CCOCC3)cs2)CC1 [Compound 36],–,–,< 1000,> 1000,> 1000,–
Clc1ccc(C2(c3csc(N4CCNCC4)n3)CCOCC2)cc1 [Compound 37],–,–,> 1000,< 500,> 1000,–
CN1CCN(c2nc(C3(c4ccccc4)CCOCC3)cs2)CC1 [Compound 59],–,–,–,–,–,IC50 [1]: > 1000 nM; IC50 [2]: > 1000 nM; IC50 [3]: > 1000 nM
CN1CCN(c2nc(C3(c4cccc(Cl)c4)CCOCC3)cs2)CC1 [Compound 63],–,–,< 1000,> 1000,> 1000,–
CN1CCN(c2nc(C3(c4ccccc4F)CCCCC3)cs2)CC1 [Compound 83],–,–,< 100,< 500,> 1000,–
CN1CCN(c2nc(C3(c4ccccc4F)CCCC3)cs2)CC1 [Compound 93],–,–,< 1000,< 500,< 500,–
CN1CCN(c2nc(C3(c4ccccc4F)CCOCC3)cs2)CC1 [Compound 112],< 1000,> 1000,–,–,–,–
